Assay results as given in patent US11000033B2, “Ketone or oxime compound, and herbicide” (NISSAN CHEMICAL CORPORATION, priority 2014, dated 2021).

Assays:
Format in all cases: in vivo
transplanted rice plant = assay: Test Example 1: effect on crop, application before weed generation in submerged conditions (symbol a); details: application herbicide amount 320 g/ha
Procedure, shortened: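 Rice at 2.5 leaf stage transplanted into submerged soil (4 cm depth) sown with three weed species; herbicide applied before weed emergence.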

[1] = system: Echinochloa crus-galli var. crus-galli; assay: Test Example 3: herbicidal effect by foliage application, Wagner pot (symbol H); details: application herbicide amount 320 g/ha
Procedure, shortened: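 Herbicidal activity was rated three weeks after a foliar spray of diluted emulsion concentrate, applied at a predetermined dose to plants grown for 14 days from seed in waterlogged alluvial soil within a 25–30 °C greenhouse.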

[2] = system: directly sowed rice plant; assay: Test Example 3: effect on crop by foliage application, Wagner pot (symbol b); details: application herbicide amount 320 g/ha
Procedure, shortened: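 Steps: fill a 1/10000-are Wagner pot with alluvial soil; add water and mix to submerge at 0.1–0.5 cm depth; sow rice plus Echinochloa crus-galli var. crus-galli, Leptochloa chinensis and Cyperus difformis; grow in a 25–30 °C greenhouse.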

Digitaria ciliaris [3] = assay: Test Example 4: herbicidal effect by soil treatment (symbol F); details: application herbicide amount 320 g/ha
Procedure, shortened: (§1)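 Seeds were sown in sterilized diluvial soil, covered with about 1.5 cm of soil, and the soil surface was sprayed with a water-diluted emulsion of the compound at a predetermined rate. Plants grew in a greenhouse at 25° C. to 30° C.; effects were scored visually 3 weeks after application.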

Setaria viridis = assay: Test Example 4: herbicidal effect by soil treatment (symbol G); details: application herbicide amount 320 g/ha
Procedure, shortened: as §1

Lolium multiflorum Lam. [4] = assay: Test Example 4: herbicidal effect by soil treatment (symbol K); details: application herbicide amount 320 g/ha
Procedure, shortened: as §1

Chenopodium album [5] = assay: Test Example 4: herbicidal effect by soil treatment (symbol O); details: application herbicide amount 320 g/ha
Procedure, shortened: as §1

Galium spurium = assay: Test Example 4: herbicidal effect by soil treatment (symbol Q); details: application herbicide amount 320 g/ha
Procedure, shortened: as §1

Veronica persica = assay: Test Example 4: herbicidal effect by soil treatment (symbol R); details: application herbicide amount 320 g/ha
Procedure, shortened: as §1

wheat = assay: Test Example 4: effect on crop by soil treatment (symbol e); details: application herbicide amount 320 g/ha
Procedure, shortened: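 Plants grew in a 25° C. to 30° C. greenhouse after spot-sowing of seeds, including beet, rapeseed, wheat and rice, into sterilized diluvial soil under roughly 1.5 cm of cover soil.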

Digitaria ciliaris [6] = assay: Test Example 5: herbicidal effect by foliage application, plastic box (symbol F); details: 320 g/ha, 3 weeks after application
Procedure, shortened: (§2)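 Emulsion formulation, diluted with water to the intended rate, was applied uniformly to leaves by small sprayer. Recipients were 14-day greenhouse-grown seedlings (25° C. to 30° C.). Assessment followed at 3 weeks.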

Alopecurus myosuroides = assay: Test Example 5: herbicidal effect by foliage application, plastic box (symbol J); details: 320 g/ha, 3 weeks after application
Procedure, shortened: as §2

Lolium multiflorum Lam. [7] = assay: Test Example 5: herbicidal effect by foliage application, plastic box (symbol K); details: 320 g/ha, 3 weeks after application
Procedure, shortened: as §2

Abutilon theophrasti = assay: Test Example 5: herbicidal effect by foliage application, plastic box (symbol M); details: 320 g/ha, 3 weeks after application
Procedure, shortened: as §2

Chenopodium album [8] = assay: Test Example 5: herbicidal effect by foliage application, plastic box (symbol O); details: 320 g/ha, 3 weeks after application
Procedure, shortened: as §2

Stellaria media = assay: Test Example 5: herbicidal effect by foliage application, plastic box (symbol P); details: 320 g/ha, 3 weeks after application
Procedure, shortened: as §2

beet = assay: Test Example 5: effect on crop by foliage application, plastic box (symbol f); details: 320 g/ha, 3 weeks after application
Procedure, shortened: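 Soil: sterilized diluvial. Container: plastic box, 21 × 13 cm, 7 cm deep. Sowing: spot-like, ~1.5 cm cover. Growth: greenhouse, 25° C. to 30° C.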

Amaranthus retroflexus = assay: Test Example 4: herbicidal effect by soil treatment (symbol N); details: application herbicide amount 320 g/ha
Procedure, shortened: as §1

Row | SMILES | Effect grade on crop, a: transplanted rice plant (transplanted rice plant) | herbicidal effect on H (Echinochloa crus-galli var. crus-galli), grade 0-5 [1] | effect on crop b (directly sowed rice plant), grade 0-5 [2] | Herbicidal effect grade, F: Digitaria ciliaris (Digitaria ciliaris [3]) | Herbicidal effect grade, K: Lolium multiflorum Lam. (Lolium multiflorum Lam. [4]) | Herbicidal effect grade, O: Chenopodium album (Chenopodium album [5]) | Herbicidal effect grade, Q: Galium spurium (Galium spurium) | Herbicidal effect grade, R: Veronica persica (Veronica persica) | Effect on crop grade, e: wheat (wheat) | F: Digitaria ciliaris, herbicidal effect (criteria of Test Example 1) (Digitaria ciliaris [6]) | J: Alopecurus myosuroides, herbicidal effect (criteria of Test Example 1) (Alopecurus myosuroides) | K: Lolium multiflorum Lam., herbicidal effect (criteria of Test Example 1) (Lolium multiflorum Lam. [7]) | M: Abutilon theophrasti, herbicidal effect (criteria of Test Example 1) (Abutilon theophrasti) | O: Chenopodium album, herbicidal effect (criteria of Test Example 1) (Chenopodium album [8]) | P: Stellaria media, herbicidal effect (criteria of Test Example 1) (Stellaria media) | f: beet, effect on crop (criteria of Test Example 1) (beet) | Herbicidal effect grade, N: Amaranthus retroflexus (Amaranthus retroflexus) | also measured
1 | CON=C(C)CC1CC(O)=C(c2c(F)cc(-c3ccccc3)cc2OC)C1=O (centres unmarked) [6-107] | 5 (Herbicidal ratio of 90% or more (almost completely withered)) | 5 (Herbicidal ratio of 90% or more (almost completely withered)) | 5 (Herbicidal ratio of 90% or more (almost completely withered)) | 5 (Herbicidal ratio of 90% or more (almost completely withered)) | 1 (Herbicidal ratio of 5% or higher and lower than 20%) | 4 (Herbicidal ratio of 70% or higher and lower than 90%) | 2 (Herbicidal ratio of 20% or higher and lower than 40%) | 4 (Herbicidal ratio of 70% or higher and lower than 90%) | 4 (Herbicidal ratio of 70% or higher and lower than 90%) | 5 (Herbicidal ratio of 90% or more (almost completely withered)) | 5 (Herbicidal ratio of 90% or more (almost completely withered)) | 5 (Herbicidal ratio of 90% or more (almost completely withered)) | 3 (Herbicidal ratio of 40% or higher and lower than 70%) | 4 (Herbicidal ratio of 70% or higher and lower than 90%) | 2 (Herbicidal ratio of 20% or higher and lower than 40%) | 2 (Herbicidal ratio of 20% or higher and lower than 40%) | – | Herbicidal effect grade, G: Setaria viridis (Setaria viridis): 5 (Herbicidal ratio of 90% or more (almost completely withered))
2 | CON=C(C)CC1CC(OC(=O)N(C)C)=C(c2c(C)cc(-c3ccc(Cl)cc3)cc2C)C1=O (mixture of isomers) [6-063] | 4 (Herbicidal ratio of 70% or higher and lower than 90%) | 4 (Herbicidal ratio of 70% or higher and lower than 90%) | 5 (Herbicidal ratio of 90% or more (almost completely withered)) | – | – | – | – | – | – | 5 (Herbicidal ratio of 90% or more (almost completely withered)) | 3 (Herbicidal ratio of 40% or higher and lower than 70%) | 5 (Herbicidal ratio of 90% or more (almost completely withered)) | 2 (Herbicidal ratio of 20% or higher and lower than 40%) | – | 0 (Herbicidal ratio of 5% or lower (almost no effect)) | 0 (Herbicidal ratio of 5% or lower (almost no effect)) | – | F: Digitaria ciliaris, herbicidal effect grade (Digitaria ciliaris [3]): 5 (Herbicidal ratio of 90% or more (almost completely withered)); G: Setaria viridis, herbicidal effect grade (Setaria viridis): 1 (Herbicidal ratio of 5% or higher and lower than 20%); K: Lolium multiflorum Lam., herbicidal effect grade (Lolium multiflorum Lam. [4]): 0 (Herbicidal ratio of 5% or lower (almost no effect)); N: Amaranthus retroflexus, herbicidal effect grade (Amaranthus retroflexus): 0 (Herbicidal ratio of 5% or lower (almost no effect)); O: Chenopodium album, herbicidal effect grade (Chenopodium album [5]): 0 (Herbicidal ratio of 5% or lower (almost no effect)); Q: Galium spurium, herbicidal effect grade (Galium spurium): 0 (Herbicidal ratio of 5% or lower (almost no effect)); R: Veronica persica, herbicidal effect grade (Veronica persica): 0 (Herbicidal ratio of 5% or lower (almost no effect)); e: wheat, effect on crop grade (wheat): 0 (Herbicidal ratio of 5% or lower (almost no effect))
3 | CON=C(C)CC1CC(OC(=O)N(C)C)=C(c2c(C)cc(C)cc2OC)C1=O (centres unmarked) [6-109] | 5 (Herbicidal ratio of 90% or more (almost completely withered)) | 5 (Herbicidal ratio of 90% or more (almost completely withered)) | 5 (Herbicidal ratio of 90% or more (almost completely withered)) | 5 (Herbicidal ratio of 90% or more (almost completely withered)) | 5 (Herbicidal ratio of 90% or more (almost completely withered)) | 0 (Herbicidal ratio of 5% or lower (almost no effect)) | 0 (Herbicidal ratio of 5% or lower (almost no effect)) | 0 (Herbicidal ratio of 5% or lower (almost no effect)) | 0 (Herbicidal ratio of 5% or lower (almost no effect)) | 5 (Herbicidal ratio of 90% or more (almost completely withered)) | 5 (Herbicidal ratio of 90% or more (almost completely withered)) | 5 (Herbicidal ratio of 90% or more (almost completely withered)) | 4 (Herbicidal ratio of 70% or higher and lower than 90%) | 0 (Herbicidal ratio of 5% or lower (almost no effect)) | 0 (Herbicidal ratio of 5% or lower (almost no effect)) | 0 (Herbicidal ratio of 5% or lower (almost no effect)) | 0 (Herbicidal ratio of 5% or lower (almost no effect)) | –
4 | CON=C(C)CC1CC(O)=C(c2c(C)cc(-c3ccsc3)cc2C)C1=O (centres unmarked) [6-106] | 5 (Herbicidal ratio of 90% or more (almost completely withered)) | 4 (Herbicidal ratio of 70% or higher and lower than 90%) | 5 (Herbicidal ratio of 90% or more (almost completely withered)) | 5 (Herbicidal ratio of 90% or more (almost completely withered)) | 3 (Herbicidal ratio of 40% or higher and lower than 70%) | 0 (Herbicidal ratio of 5% or lower (almost no effect)) | 0 (Herbicidal ratio of 5% or lower (almost no effect)) | 0 (Herbicidal ratio of 5% or lower (almost no effect)) | 0 (Herbicidal ratio of 5% or lower (almost no effect)) | 5 (Herbicidal ratio of 90% or more (almost completely withered)) | 5 (Herbicidal ratio of 90% or more (almost completely withered)) | 5 (Herbicidal ratio of 90% or more (almost completely withered)) | 0 (Herbicidal ratio of 5% or lower (almost no effect)) | 0 (Herbicidal ratio of 5% or lower (almost no effect)) | 3 (Herbicidal ratio of 40% or higher and lower than 70%) | 0 (Herbicidal ratio of 5% or lower (almost no effect)) | 0 (Herbicidal ratio of 5% or lower (almost no effect)) | –
